These results are taken from patent US20210255193A1, “LYSINE REACTIVE PROBES AND USES THEREOF” (The Scripps Research Institute, priority 2017, published 2021).

Assay in all cases: competitive isoTOP-ABPP
Common to all, as to type: binding

The target in one test is T1, DTYMK Thymidylate kinase (Homo sapiens, UniProt P23919).
T1 construct: isoTOP-ABPP experiments performed in cell lysates (in vitro); endogenous in cells; host or cells: soluble proteome of human cancer cell lines (MDA-MB-231; Ramos and Jurkat also prepared)
T1 sequence (P23919 1-212): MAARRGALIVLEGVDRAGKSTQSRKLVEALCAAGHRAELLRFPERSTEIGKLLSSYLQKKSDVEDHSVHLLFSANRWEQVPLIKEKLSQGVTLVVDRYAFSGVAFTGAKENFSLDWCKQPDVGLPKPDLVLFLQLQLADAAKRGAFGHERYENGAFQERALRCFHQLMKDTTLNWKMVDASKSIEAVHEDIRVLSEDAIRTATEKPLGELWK
The settings on record: for R value (DMSO/fragment) for probe 1 labeling: P23919_K118; for R value (DMSO/fragment) for probe 1 labeling / isoTOP-ABPP reactivity ratio at lysine P23919_K118 / isoTOP-ABPP ratio (R) at liganded lysine P23919_K118: 50 uM, in vitro; for R value (DMSO/fragment) for probe 1 labeling / isoTOP-ABPP reactivity ratio at lysine P23919_K118: 231 sol; for isoTOP-ABPP ratio (R) at liganded lysine P23919_K118: sol, 231. In short, it runs like this:
(§1)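 Readout: isotopic light/heavy MS1 peak-area ratio (R, DMSO heavy over compound light), median across peptides sharing a modified lysine. Lysate received fragment (activated esters 50 μM, guanidinylating agents 100 μM final) or DMSO, then 0.1 mM STP-alkyne probe for 1 h at ambient temperature.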

Test [1] deals with T2, ERO1L ERO1-like protein alpha (Homo sapiens, UniProt Q96HE7).
T2 construct: isoTOP-ABPP experiments performed in cell lysates (in vitro); endogenous in cells; host or cells: soluble proteome of human cancer cell lines (MDA-MB-231; Ramos and Jurkat also prepared)
T2 sequence (Q96HE7 24-468): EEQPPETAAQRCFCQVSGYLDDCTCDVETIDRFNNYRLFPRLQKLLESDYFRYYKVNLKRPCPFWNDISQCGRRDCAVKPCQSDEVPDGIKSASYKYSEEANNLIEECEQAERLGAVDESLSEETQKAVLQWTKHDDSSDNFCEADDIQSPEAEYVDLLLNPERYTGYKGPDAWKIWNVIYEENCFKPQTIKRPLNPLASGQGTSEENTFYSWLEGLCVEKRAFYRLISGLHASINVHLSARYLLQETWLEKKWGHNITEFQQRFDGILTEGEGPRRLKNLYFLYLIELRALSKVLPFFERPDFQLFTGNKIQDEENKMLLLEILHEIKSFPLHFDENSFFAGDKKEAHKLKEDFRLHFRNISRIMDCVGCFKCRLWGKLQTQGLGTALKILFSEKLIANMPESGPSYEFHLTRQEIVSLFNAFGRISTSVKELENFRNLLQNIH
Conditions: 50 uM, in vitro; for R value (DMSO/fragment) for probe 1 labeling: Q96HE7_K413; for R value (DMSO/fragment) for probe 1 labeling / isoTOP-ABPP reactivity ratio at lysine Q96HE7_K413: 231 sol; for isoTOP-ABPP ratio (R) at liganded lysine Q96HE7_K413: sol, 231. The procedure, abridged:
as §1

The next test has as its target T3, FAM136A Protein FAM136A (Homo sapiens, UniProt Q96C01).
T3 construct: isoTOP-ABPP experiments performed in cell lysates (in vitro); endogenous in cells; host or cells: soluble proteome of human cancer cell lines (MDA-MB-231; Ramos and Jurkat also prepared)
Conditions: for R value (DMSO/fragment) for probe 1 labeling: Q96C01_K99; for R value (DMSO/fragment) for probe 1 labeling / isoTOP-ABPP reactivity ratio at lysine Q96C01_K99 / isoTOP-ABPP ratio (R) at liganded lysine Q96C01_K99: 50 uM, in vitro; for R value (DMSO/fragment) for probe 1 labeling / isoTOP-ABPP reactivity ratio at lysine Q96C01_K99: 231 sol; for isoTOP-ABPP ratio (R) at liganded lysine Q96C01_K99: sol, 231. The procedure, abridged: as §1

The target of test [2] is T4, MRPL12 39S ribosomal protein L12, mitochondrial (Homo sapiens, UniProt P52815).
T4 construct: isoTOP-ABPP experiments performed in cell lysates (in vitro); endogenous in cells; host or cells: soluble proteome of human cancer cell lines (MDA-MB-231, Ramos, Jurkat)
Conditions: for R value (DMSO/fragment) for probe 1 labeling: P52815_K87; for R value (DMSO/fragment) for probe 1 labeling / isoTOP-ABPP reactivity ratio at lysine P52815_K87 / isoTOP-ABPP ratio (R) at liganded lysine P52815_K87: 50 uM, in vitro; for R value (DMSO/fragment) for probe 1 labeling / isoTOP-ABPP reactivity ratio at lysine P52815_K87: 231 sol; for isoTOP-ABPP ratio (R) at liganded lysine P52815_K87: sol, 231. In short, it runs like this:
as §1

Test [3] concerns the target T5, NLN Neurolysin, mitochondrial (Homo sapiens, UniProt Q9BYT8).
T5 construct: isoTOP-ABPP experiments performed in cell lysates (in vitro); endogenous in cells; host or cells: soluble proteome of human cancer cell lines (MDA-MB-231; Ramos and Jurkat also prepared)
The settings on record: 50 uM, in vitro; for R value (DMSO/fragment) for probe 1 labeling: Q9BYT8_K253; for R value (DMSO/fragment) for probe 1 labeling / isoTOP-ABPP reactivity ratio at lysine Q9BYT8_K253: 231 sol; for isoTOP-ABPP ratio (R) at liganded lysine Q9BYT8_K253: sol, 231. The procedure, abridged: as §1

The target in test [4] is T6, SOD2 Superoxide dismutase (Homo sapiens, UniProt P04179).
T6 construct: isoTOP-ABPP experiments performed in cell lysates (in vitro); endogenous in cells; host or cells: MDA-MB-231 soluble lysate
T6 sequence (P04179 25-222): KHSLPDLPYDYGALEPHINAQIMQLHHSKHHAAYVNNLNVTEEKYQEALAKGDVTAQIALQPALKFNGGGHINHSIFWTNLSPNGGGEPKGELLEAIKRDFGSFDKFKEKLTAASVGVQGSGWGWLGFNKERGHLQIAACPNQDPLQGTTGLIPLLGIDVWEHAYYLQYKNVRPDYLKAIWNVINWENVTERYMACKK
The settings on record: 50 uM, in vitro; for R value (DMSO/fragment) for probe 1 labeling: P04179_K68; for isoTOP-ABPP ratio (R) at liganded lysine P04179_K68: sol, 231. In short, it runs like this:
as §1

T5 sequence (Q9BYT8 38-704): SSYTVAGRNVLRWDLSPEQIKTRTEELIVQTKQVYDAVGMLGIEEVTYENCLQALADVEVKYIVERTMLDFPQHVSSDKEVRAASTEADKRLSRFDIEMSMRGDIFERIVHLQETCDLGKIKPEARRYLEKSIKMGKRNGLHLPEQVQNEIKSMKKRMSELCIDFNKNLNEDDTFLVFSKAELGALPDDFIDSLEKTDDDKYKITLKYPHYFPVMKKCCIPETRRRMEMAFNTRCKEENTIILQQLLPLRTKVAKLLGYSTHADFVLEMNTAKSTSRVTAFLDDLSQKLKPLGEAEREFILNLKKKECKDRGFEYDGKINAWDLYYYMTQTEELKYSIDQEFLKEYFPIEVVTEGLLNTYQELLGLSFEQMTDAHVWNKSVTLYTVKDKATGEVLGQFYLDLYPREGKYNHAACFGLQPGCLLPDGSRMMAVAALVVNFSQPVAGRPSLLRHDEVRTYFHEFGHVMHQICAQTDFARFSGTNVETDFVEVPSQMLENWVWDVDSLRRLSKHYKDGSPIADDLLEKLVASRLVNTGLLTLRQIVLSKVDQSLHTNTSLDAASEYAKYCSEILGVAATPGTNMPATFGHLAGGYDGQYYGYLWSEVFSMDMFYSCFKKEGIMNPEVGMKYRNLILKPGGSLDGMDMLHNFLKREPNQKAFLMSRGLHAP
T3 sequence (Q96C01 whole entry): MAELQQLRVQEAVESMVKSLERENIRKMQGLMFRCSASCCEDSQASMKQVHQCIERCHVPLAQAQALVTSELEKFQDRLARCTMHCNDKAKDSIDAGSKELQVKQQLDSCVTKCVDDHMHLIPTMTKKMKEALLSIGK

In the case of `O=C(Oc1c(F)c(F)c(F)c(F)c1F)C(c1ccccc1)c1ccccc1` [fragment 20, Pentafluorophenyl 2,2-diphenylacetate], the “R value (DMSO/fragment) for probe 1 labeling” value on DTYMK Thymidylate kinase was determined as 0.9; in test [1], 0.9; at FAM136A Protein FAM136A, 0.9; in test [2], 0.9; in test [3] it was 0.9; in test [4] (231 sol) it was 1.0.

Take `O=C(Oc1c(F)c(F)c(F)c(F)c1F)c1cc(C(F)(F)F)cc(C(F)(F)F)c1` [fragment 21, Pentafluorophenyl 3,5-bis(trifluoromethyl)benzoate]: the “R value (DMSO/fragment) for probe 1 labeling” value on DTYMK Thymidylate kinase amounted to 0.8; in test [1] it was 1.4; on FAM136A Protein FAM136A, 1.1; in test [2] it was 0.6; in test [3], 0.7; in test [4] (231 sol), 1.2.

Take `CCn1cc(C(=O)Oc2c(F)c(F)c(F)c(F)c2F)c(=O)c2ccc(C)nc21` [fragment 28, Pentafluorophenyl 1-ethyl-7-methyl-4-oxo-1,4-dihydro-1,8-naphthyridine-3-carboxylate]: the “isoTOP-ABPP reactivity ratio at lysine P23919_K118” value on DTYMK Thymidylate kinase is 0.9. Further, the “isoTOP-ABPP reactivity ratio at lysine Q96HE7_K413” value in test [1] was 1.4. For the same molecule, the “isoTOP-ABPP reactivity ratio at lysine P52815_K87” value in test [2] is 0.8. The “isoTOP-ABPP reactivity ratio at lysine P04179_K68” value in test [4] (231 sol) turned out to be 0.8.

As for `O=C(CCc1cn(-c2ccccc2)nc1-c1ccccc1)Oc1ccc([N+](=O)[O-])cc1[N+](=O)[O-]` [fragment 29, 2,4-Dinitrophenyl 3-(1,3-diphenyl-1H-pyrazol-4-yl)propanoate], on DTYMK Thymidylate kinase, the “isoTOP-ABPP reactivity ratio at lysine P23919_K118” value amounted to 1.1. Besides, the “isoTOP-ABPP reactivity ratio at lysine Q96HE7_K413” value in test [1] came to 20.0. Besides, the “isoTOP-ABPP reactivity ratio at lysine Q96C01_K99” value at FAM136A Protein FAM136A stood at 0.8. For the same molecule, the “isoTOP-ABPP reactivity ratio at lysine P52815_K87” value in test [2] stood at 1.1. Also, the “isoTOP-ABPP reactivity ratio at lysine Q9BYT8_K253” value in test [3] is listed as 1.0.

Turning to `COc1cc(CCC(=O)Oc2ccc([N+](=O)[O-])cc2[N+](=O)[O-])cc(OC)c1OC` [fragment 33, 2,4-Dinitrophenyl 3-(3,4,5-trimethoxyphenyl)propanoate], the “isoTOP-ABPP reactivity ratio at lysine P23919_K118” value at DTYMK Thymidylate kinase is 6.6. For the same molecule, on FAM136A Protein FAM136A, the “isoTOP-ABPP reactivity ratio at lysine Q96C01_K99” value is recorded as 0.7. Moreover, the “isoTOP-ABPP reactivity ratio at lysine P52815_K87” value in test [2] is recorded as 2.1. Moreover, in test [3], the “isoTOP-ABPP reactivity ratio at lysine Q9BYT8_K253” value stood at 4.1.

Take `O=C(Oc1ccc([N+](=O)[O-])cc1[N+](=O)[O-])c1ccc2ccccc2n1` [fragment 35, 2,4-Dinitrophenyl quinoline-2-carboxylate]: the “isoTOP-ABPP ratio (R) at liganded lysine P23919_K118” value at DTYMK Thymidylate kinase was 0.9. Besides, the “isoTOP-ABPP ratio (R) at liganded lysine Q96HE7_K413” value in test [1] came to 2.2. The “isoTOP-ABPP ratio (R) at liganded lysine P52815_K87” value in test [2] worked out at 0.9. Moreover, the “isoTOP-ABPP ratio (R) at liganded lysine Q9BYT8_K253” value in test [3] is listed as 1.1.

`O=C(Oc1ccc([N+](=O)[O-])cc1[N+](=O)[O-])c1ccc(-c2ccccc2)cc1` [fragment 37, 2,4-Dinitrophenyl [1,1′-biphenyl]-4-carboxylate]: the “isoTOP-ABPP ratio (R) at liganded lysine P23919_K118” value on DTYMK Thymidylate kinase was 0.9. For the same molecule, the “isoTOP-ABPP ratio (R) at liganded lysine Q96HE7_K413” value in test [1] was 2.4. Further, the “isoTOP-ABPP ratio (R) at liganded lysine Q96C01_K99” value at FAM136A Protein FAM136A came to 1.0. Moreover, the “isoTOP-ABPP ratio (R) at liganded lysine Q9BYT8_K253” value in test [3] came out at 0.9. Besides, the “isoTOP-ABPP ratio (R) at liganded lysine P04179_K68” value in test [4] is given as 1.7.

In the case of `O=C(Oc1ccc([N+](=O)[O-])cc1[N+](=O)[O-])c1ccc(Oc2ccccc2)cc1` [fragment 39, 2,4-Dinitrophenyl 4-phenoxybenzoate], at DTYMK Thymidylate kinase, the “isoTOP-ABPP ratio (R) at liganded lysine P23919_K118” value is recorded as 0.8. Besides, at FAM136A Protein FAM136A, the “isoTOP-ABPP ratio (R) at liganded lysine Q96C01_K99” value is given as 0.8. Further, the “isoTOP-ABPP ratio (R) at liganded lysine P52815_K87” value in test [2] worked out at 1.1. Besides, the “isoTOP-ABPP ratio (R) at liganded lysine Q9BYT8_K253” value in test [3] was found to be 1.1. Further, the “isoTOP-ABPP ratio (R) at liganded lysine P04179_K68” value in test [4] is listed as 1.0.

Take `CC(C)(C)OC(=O)NCCCC(=O)Oc1ccc([N+](=O)[O-])cc1[N+](=O)[O-]` [fragment 41, 2,4-Dinitrophenyl 4-((tert-butoxycarbonyl)amino)butanoate]: the “isoTOP-ABPP ratio (R) at liganded lysine P23919_K118” value on DTYMK Thymidylate kinase turned out to be 0.8. In addition, in test [1], the “isoTOP-ABPP ratio (R) at liganded lysine Q96HE7_K413” value is on record as 1.7. In addition, the “isoTOP-ABPP ratio (R) at liganded lysine Q96C01_K99” value on FAM136A Protein FAM136A is 0.9. For the same molecule, the “isoTOP-ABPP ratio (R) at liganded lysine P52815_K87” value in test [2] is reported as 4.1. Moreover, the “isoTOP-ABPP ratio (R) at liganded lysine Q9BYT8_K253” value in test [3] turned out to be 1.3. In addition, the “isoTOP-ABPP ratio (R) at liganded lysine P04179_K68” value in test [4] came out at 4.8.

Take `O=C(Oc1c(F)c(F)cc(F)c1F)c1cc(C(F)(F)F)cc(C(F)(F)F)c1` [fragment 48, 2,3,5,6-Tetrafluorophenyl 3,5-bis(trifluoromethyl)benzoate]: the “isoTOP-ABPP ratio, lysine P23919_K118” value on DTYMK Thymidylate kinase (50 uM_231_sol_in vitro) worked out at 0.6. For the same molecule, the “isoTOP-ABPP ratio, lysine Q96C01_K99” value at FAM136A Protein FAM136A (50 uM_231_sol_in vitro) is on record as 5.5. Besides, the “isoTOP-ABPP ratio, lysine P52815_K87” value in test [2] (50 uM_231_sol_in vitro, possible other lysine B4DLN1_K87, P52815_K91) worked out at 0.9.
